Article PMC5516028, “Molecular tools for GABAA receptors: High affinity ligands for β1-containing subtypes” (Scientific Reports, 2017)

Key:
Format in all cases: cell-based
[1] = target: T1, α1β1R41N GABAA receptors (Rattus norvegicus, UniProt P15431+P62813, R66N); test: Two electrode voltage clamp in Xenopus laevis oocytes, mutant α1β1R41N; details: read-out: % of control current at EC3-5
T1 construct: expressed in transfected cells; host or cells: Xenopus laevis oocytes, mRNA injected
Source text: (§1) cDNA’s of rat GABAA receptor subunits α1, α4, β1, β2, β3 and γ2S were cloned as described. cDNAs of the rat subunits α2, α3 and α5 were gifts from P. Malherbe, that of α6 and γ1 were gifts of P. Seeburg and that of δ was a gift of C. Czajkowski. The mutants were constructed using the Q5 Site-Directed Mutagenesis Kit (New England Biolabs) following manufacturer’s instruction. We used the wild-type rat β3-pCI vector as template and the primers […] and […] resulting in a substitution of amino acid N41 (AAC) to R (AGG). We used the wild-type rat β1-pCI vector as template and the primers […] and […] resulting in a substitution of amino acid R41 (CGG) to N (AAC). The mutated subunits were confirmed by sequencing.
(§2) In vitro transcription of mRNA was based on the cDNA expression vectors encoding for rat GABAA receptor subunits α1–6, β1-3, γ1,2, δ and the two β mutants (β1R41N and β3N41R)[40]. After linearizing the cDNA vectors with appropriate restriction endonucleases, the cDNA was purified and concentrated with the DNA Clean and Contentrator ^TM Kit (Zymoresearch, Catalog No. D4005). Capped transcripts of the purified cDNA were produced using the mMESSAGE mMACHINE® T7 transcription kit (Ambion, TX, USA) and polyadenylated using the Ambion PolyA tailing kit (Ambion). After transcription and polyadenylation the RNA was purified with the MEGAclear ^TM Kit (Ambion, Catalog No. AM1908). The final RNA concentration was measured on NanoDrop® ND-1000 and finally diluted and stored in diethylpyrocarbonate-treated water at −80 °C. For the microinjection, the RNA of αβ receptor combinations was mixed at 1:1 ratio (which leads to αβ receptors that consist of predominantly 3 beta and 2 alpha subunits[27]), for αkβlγm (k = 1–3, l = 1, 3, m = 1, 2) receptors at 1:1:5 ratio, for αkβ3γ2 (k = 4–6) and αkβlδ (k = 1, 4 and 6, l = 1, 3) receptor combinations at 3:1:5 ratio.
(§3) Mature female Xenopus laevis (Nasco, WI) were anesthetized in a bath of ice-cold 0.17% Tricain (Ethyl-m-aminobenzoate, Sigma, MO) before decapitation in full accordance with all rules of the Austrian animal protection law (see http://www.ris.bka.gv.at/Dokumente/BgblAuth/BGBLA_2012_I_114/BGBLA_2012_I_114.pdf) and the Austrian animal experiment by-laws (see https://www.ris.bka.gv.at/Dokumente/BgblAuth/BGBLA_2012_II_522/BGBLA_2012_II_522.pdf) which implement the European Directive 2010/63/EU (see http://eur-lex.europa.eu/LexUriServ/LexUriServ.do?uri=OJ:L:2010:276:0033:0079:en:PDF) into the Austrian law (all information accessed on July 27, 2016). The frog’s ovaries were transferred to ND96 medium (96 mM NaCl, 2 mM KCl, 1 mM MgCl2, 5 mM HEPES; pH 7.5). Stage 5–6 oocytes with the follicle cell layer around them were roughly dissected with forceps into packages of 10–15 cells and washed in Ca^2+-free ND96 medium. Cells were then digested with collagenase (type IA, Sigma, NO, 1 mg/mL ND96) at 18 °C shaking at 30 rpm for 30–60 minutes and gently defolliculated with the aid of a glass pipette with appropriate tip diameter and a platinum loop. Defolliculated cells were stored at 18 °C for at least 6 hours in ND96 solution containing penicillin G (10000 IU/100 mL) and streptomycin (10 mg/100 mL) in order to preselect and exclude damaged cells from further treatment. Healthy defolliculated oocytes were injected with an aqueous solution of mRNA. A total of 4.5 ng of mRNA per oocyte was injected with a Nanoject II (Drummond). After injection of mRNA, oocytes were incubated at 18 °C (ND96 + antibiotic) for 2–3 days for αβ receptors and for 3–4 days for αβγ or αβδ receptors before recording. When cells were measured at later time points, oocytes were stored at +4 °C instead of 18 °C.
(§4) For electrophysiological recordings, oocytes were placed on a nylon-grid in a bath of Ca^2+-containing NDE solution medium [96 mM NaCl, 5 mM HEPES-NaOH (pH 7.5), 2 mM KCl, 1 mM MgCl2, 1.8 mM CaCl2].

[2] = target: T2, α1β1 GABAA receptors (Rattus norvegicus, UniProt P15431+P62813); test: Two electrode voltage clamp in Xenopus laevis oocytes, α1β1; details: α1β1
T2 construct: expressed in transfected cells; host or cells: Xenopus laevis oocytes, mRNA injected
Source text: as §1, §2, §3, §4

[3] = target: T3, α1β3 GABAA receptors (Rattus norvegicus, UniProt P62813+P63079); test: Two electrode voltage clamp in Xenopus laevis oocytes, α1β3
T3 construct: expressed in transfected cells; host or cells: Xenopus laevis oocytes, mRNA injected
Source text: as §1, §2, §3, §4

[4] = target: T4, α1β3N41R GABAA receptors (Rattus norvegicus, UniProt P62813+P63079, N66R); test: Two electrode voltage clamp in Xenopus laevis oocytes, mutant α1β3N41R; details: co-applied with GABA EC3-5, read-out: EC50 values for the mutated receptors
T4 construct: expressed in transfected cells; host or cells: Xenopus laevis oocytes, mRNA injected
Source text: as §1, §2, §3, §4

[5] = target: T5, α1β2 GABAA receptors (Rattus norvegicus, UniProt P62813+P63138); test: Two electrode voltage clamp in Xenopus laevis oocytes, α1β2
T5 construct: expressed in transfected cells; host or cells: Xenopus laevis oocytes, mRNA injected
Source text: as §1, §2, §3, §4

T3 sequence (P62813 28-455): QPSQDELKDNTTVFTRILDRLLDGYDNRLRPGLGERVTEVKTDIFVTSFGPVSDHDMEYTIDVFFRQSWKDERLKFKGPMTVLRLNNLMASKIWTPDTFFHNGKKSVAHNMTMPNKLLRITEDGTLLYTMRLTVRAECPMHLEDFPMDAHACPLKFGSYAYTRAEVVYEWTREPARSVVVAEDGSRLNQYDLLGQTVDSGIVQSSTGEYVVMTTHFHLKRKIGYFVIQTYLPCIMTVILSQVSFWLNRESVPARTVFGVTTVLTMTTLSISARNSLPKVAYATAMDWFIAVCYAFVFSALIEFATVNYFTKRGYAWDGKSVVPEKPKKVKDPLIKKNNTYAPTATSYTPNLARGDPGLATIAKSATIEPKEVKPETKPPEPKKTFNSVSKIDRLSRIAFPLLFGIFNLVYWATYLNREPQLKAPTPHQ
T3 sequence (P63079 26-473): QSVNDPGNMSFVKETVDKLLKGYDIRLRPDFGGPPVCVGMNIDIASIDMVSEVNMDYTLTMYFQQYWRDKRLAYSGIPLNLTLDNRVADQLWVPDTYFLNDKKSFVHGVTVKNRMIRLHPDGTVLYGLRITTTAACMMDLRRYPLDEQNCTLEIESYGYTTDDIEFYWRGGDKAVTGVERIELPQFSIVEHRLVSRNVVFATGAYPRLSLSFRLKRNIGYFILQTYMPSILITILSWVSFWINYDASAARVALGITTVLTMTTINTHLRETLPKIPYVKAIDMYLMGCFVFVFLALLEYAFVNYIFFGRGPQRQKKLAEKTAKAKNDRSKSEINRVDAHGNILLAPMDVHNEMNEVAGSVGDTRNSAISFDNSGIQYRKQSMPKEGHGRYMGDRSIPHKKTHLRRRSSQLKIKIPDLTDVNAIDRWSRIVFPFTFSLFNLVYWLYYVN
T5 sequence (P62813 28-455): as the sequence (P62813 28-455) above
T5 sequence (P63138 25-474 limits assumed): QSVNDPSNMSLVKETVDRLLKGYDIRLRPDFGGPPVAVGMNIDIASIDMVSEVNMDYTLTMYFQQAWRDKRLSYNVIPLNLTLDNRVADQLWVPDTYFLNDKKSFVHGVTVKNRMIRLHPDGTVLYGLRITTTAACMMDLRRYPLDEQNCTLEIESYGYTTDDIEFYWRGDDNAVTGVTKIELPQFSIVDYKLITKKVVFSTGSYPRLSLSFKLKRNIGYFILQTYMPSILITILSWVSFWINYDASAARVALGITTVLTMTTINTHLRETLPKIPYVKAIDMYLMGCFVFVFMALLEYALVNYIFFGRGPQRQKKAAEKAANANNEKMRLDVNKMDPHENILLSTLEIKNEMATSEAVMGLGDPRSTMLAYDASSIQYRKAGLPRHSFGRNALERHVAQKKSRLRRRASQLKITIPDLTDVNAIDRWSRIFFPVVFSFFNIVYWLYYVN
T2 sequence (P62813 28-455): as the sequence (P62813 28-455) above
T2 sequence (P15431 26-474): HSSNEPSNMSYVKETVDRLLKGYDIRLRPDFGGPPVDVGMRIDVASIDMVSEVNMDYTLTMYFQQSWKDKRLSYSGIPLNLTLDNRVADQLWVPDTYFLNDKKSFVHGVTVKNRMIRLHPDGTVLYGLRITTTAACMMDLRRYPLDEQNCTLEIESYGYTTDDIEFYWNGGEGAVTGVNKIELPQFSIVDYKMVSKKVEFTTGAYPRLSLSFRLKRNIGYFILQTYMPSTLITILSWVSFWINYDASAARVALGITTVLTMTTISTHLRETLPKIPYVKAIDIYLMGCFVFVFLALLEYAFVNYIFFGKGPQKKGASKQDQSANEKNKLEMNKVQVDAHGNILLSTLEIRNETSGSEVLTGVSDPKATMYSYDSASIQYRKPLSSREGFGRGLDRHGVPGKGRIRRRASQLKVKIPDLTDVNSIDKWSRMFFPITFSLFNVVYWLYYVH
T1 sequence (P62813 28-455): as the sequence (P62813 28-455) above
T1 sequence (P15431 26-474 R66N): as the sequence (P15431 26-474) above, with R41N counted along it
T4 sequence (P62813 28-455): as the sequence (P62813 28-455) above
T4 sequence (P63079 26-473 N66R): as the sequence (P63079 26-473) above, with N41R counted along it

- current as % of control at 0.1 µM ([1]; 100nM): 95 ± 20%
- current as % of control at 0.3 µM ([1]; 300nM): 85 ± 25%
- current as % of control at 1 µM ([1]; 1μM): 100 ± 30%
- current as % of control at 3 µM ([1]; 3µM): 120 ± 30%
- current as % of control at 10 µM ([1]; 10μM): 155 ± 40%
- current as % of control at 30 µM ([1]; 30μM): 160 ± 40%
- activity at 0.01 µM ([2]; read-out: efficacy, % of control current (GABA EC3-5 = 100%), 10 nM): 123%
- activity at 10 µM ([2]; read-out: efficacy, % of control current (GABA EC3-5 = 100%), 10 µM): 732 ± 141%
- activity at 30 µM ([2]; read-out: efficacy, % of control current (GABA EC3-5 = 100%), 30 µM): 637 ± 114%
- Hill slope (nH) [2]: 1.0± 0.5
- EC50 ([2]; co-applied with GABA EC3-5, read-out: EC50): 0.71 µM
- activity at 0.01 µM ([3]; read-out: efficacy, % of control current (GABA EC3-5 = 100%), α1β3, 10 nM): 111 ± 5.7%
- activity at 0.03 µM ([3]; read-out: efficacy, % of control current (GABA EC3-5 = 100%), α1β3, 30 nM): 115 ± 8.1%
- activity at 0.1 µM ([3]; read-out: efficacy, % of control current (GABA EC3-5 = 100%), α1β3, 100 nM): 126 ± 11.5%
- activity at 30 µM ([3]; read-out: efficacy, % of control current (GABA EC3-5 = 100%), α1β3, 30 µM): 623 ± 114%
- EC50 ([3]; α1β3, co-applied with GABA EC3-5, read-out: EC50): 3.49 µM
- EC50 [4]: 2.47 µM
- EC50 [5]: 3.74 µM
- activity at 0.003 µM ([5]; read-out: efficacy, % of control current (GABA EC3-5 = 100%), α1β2, 3 nM): 100%
- activity at 1 µM ([5]; read-out: efficacy, % of control current (GABA EC3-5 = 100%), α1β2, 1 µM): 179 ± 8.3%
- activity at 30 µM ([5]; read-out: efficacy, % of control current (GABA EC3-5 = 100%), α1β2, 30 µM): 651 ± 148%
- Hill slope (nH) ([5]; α1β2): 2.8±1.7
SMILES: COc1ccc2[nH]cc3c(=O)n(-c4ccc(C)cc4)nc-3c2c1 [Compound 5, 8-Methoxy-2-(4-methylphenyl)-2,5-dihydro-3H-pyrazolo[4,3-c]quinolin-3-one]
